Reference: ChEMBL document CHEMBL5505963, “Novel berberine derivatives as p300 histone acetyltransferase inhibitors in combination treatment for breast cancer” (Eur J Med Chem, 2024)
The source made the active and inactive calls. The rule behind the calls is not given here.

Legend:
[1] = molecular target: Histone acetyltransferase p300 (Homo sapiens, UniProt Q09472); experiment: Inhibition of p300 HAT (unknown origin) using 3H-acetyl-CoA as substrate assessed as H3 peptide acetylation preincubated with compound for 15 mins followed by substrate addition and measured after 30 mins by microbeta scintillation counter analysis
Sequence of Histone acetyltransferase p300 (Q09472 whole entry): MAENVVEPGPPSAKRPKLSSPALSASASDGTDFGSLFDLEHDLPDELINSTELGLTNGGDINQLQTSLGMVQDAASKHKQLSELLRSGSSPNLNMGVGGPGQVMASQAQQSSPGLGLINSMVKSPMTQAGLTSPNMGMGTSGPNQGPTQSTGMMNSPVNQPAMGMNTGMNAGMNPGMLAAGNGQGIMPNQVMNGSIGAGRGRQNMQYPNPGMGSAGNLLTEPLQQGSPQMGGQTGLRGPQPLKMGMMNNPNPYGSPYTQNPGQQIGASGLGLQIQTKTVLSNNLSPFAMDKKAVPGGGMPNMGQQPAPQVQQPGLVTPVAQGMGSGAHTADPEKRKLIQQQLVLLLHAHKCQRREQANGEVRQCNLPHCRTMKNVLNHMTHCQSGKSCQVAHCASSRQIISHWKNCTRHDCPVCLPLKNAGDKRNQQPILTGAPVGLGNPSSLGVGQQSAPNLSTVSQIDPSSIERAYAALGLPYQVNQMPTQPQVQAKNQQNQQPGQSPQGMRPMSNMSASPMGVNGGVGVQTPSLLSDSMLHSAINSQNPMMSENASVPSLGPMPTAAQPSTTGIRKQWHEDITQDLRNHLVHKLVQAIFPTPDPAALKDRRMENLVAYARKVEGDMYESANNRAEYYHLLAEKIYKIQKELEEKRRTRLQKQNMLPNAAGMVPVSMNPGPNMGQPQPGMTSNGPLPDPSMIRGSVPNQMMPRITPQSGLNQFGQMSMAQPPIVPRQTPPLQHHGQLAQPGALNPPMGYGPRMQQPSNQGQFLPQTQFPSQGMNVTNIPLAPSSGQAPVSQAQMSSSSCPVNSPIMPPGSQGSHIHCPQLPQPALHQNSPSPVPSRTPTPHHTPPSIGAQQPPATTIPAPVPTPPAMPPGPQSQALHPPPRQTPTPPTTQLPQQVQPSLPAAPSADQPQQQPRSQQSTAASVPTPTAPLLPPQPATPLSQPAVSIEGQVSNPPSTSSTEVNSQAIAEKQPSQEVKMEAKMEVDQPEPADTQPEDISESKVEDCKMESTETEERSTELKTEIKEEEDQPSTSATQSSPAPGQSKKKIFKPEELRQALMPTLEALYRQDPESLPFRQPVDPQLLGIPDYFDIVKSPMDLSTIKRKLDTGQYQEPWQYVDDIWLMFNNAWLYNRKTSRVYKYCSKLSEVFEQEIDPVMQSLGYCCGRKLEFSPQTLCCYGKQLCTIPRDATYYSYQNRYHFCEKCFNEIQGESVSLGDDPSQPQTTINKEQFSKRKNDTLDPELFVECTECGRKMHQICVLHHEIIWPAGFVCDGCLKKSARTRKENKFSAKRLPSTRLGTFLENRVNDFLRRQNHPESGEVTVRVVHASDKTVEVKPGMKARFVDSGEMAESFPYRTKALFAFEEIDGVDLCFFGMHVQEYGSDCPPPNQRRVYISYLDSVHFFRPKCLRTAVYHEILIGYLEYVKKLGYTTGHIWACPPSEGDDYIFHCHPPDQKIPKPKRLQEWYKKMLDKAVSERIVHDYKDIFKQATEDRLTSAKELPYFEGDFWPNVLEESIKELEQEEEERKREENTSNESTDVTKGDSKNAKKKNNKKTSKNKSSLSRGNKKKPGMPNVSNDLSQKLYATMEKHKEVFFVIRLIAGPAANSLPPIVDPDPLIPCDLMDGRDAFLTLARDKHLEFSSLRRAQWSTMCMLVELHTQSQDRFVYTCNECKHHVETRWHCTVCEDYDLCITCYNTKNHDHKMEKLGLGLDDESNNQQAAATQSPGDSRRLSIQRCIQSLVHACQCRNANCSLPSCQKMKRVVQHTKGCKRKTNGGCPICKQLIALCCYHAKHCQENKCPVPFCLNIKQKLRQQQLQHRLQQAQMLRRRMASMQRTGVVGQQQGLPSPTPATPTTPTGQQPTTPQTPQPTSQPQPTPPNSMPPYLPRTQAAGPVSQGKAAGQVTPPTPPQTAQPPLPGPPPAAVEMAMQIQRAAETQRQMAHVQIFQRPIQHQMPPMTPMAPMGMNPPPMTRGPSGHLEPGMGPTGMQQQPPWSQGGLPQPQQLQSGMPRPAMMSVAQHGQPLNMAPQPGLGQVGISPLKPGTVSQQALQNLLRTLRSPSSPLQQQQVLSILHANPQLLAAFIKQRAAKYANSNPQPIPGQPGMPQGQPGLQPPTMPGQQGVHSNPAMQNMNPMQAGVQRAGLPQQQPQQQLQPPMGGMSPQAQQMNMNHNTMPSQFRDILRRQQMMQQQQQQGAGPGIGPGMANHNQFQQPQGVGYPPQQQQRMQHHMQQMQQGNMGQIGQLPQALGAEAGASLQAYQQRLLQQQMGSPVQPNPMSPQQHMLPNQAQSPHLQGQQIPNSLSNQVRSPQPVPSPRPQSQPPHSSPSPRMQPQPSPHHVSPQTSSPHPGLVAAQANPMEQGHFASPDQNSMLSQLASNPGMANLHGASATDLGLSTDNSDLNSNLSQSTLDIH

[2] = tested on: PANC-1; experiment: Antiproliferative activity against human PANC-1 cells assessed as inhibition of cell growth incubated for 48 hrs by MTT assay; assay type: functional, cell-based; details: PANC-1, 48 h
[3] = tested on: LNCaP; experiment: Antiproliferative activity against human LNCaP cells assessed as inhibition of cell growth incubated for 48 hrs by MTT assay; assay type: functional, cell-based
[4] = tested on: MCF-10A; experiment: Antiproliferative activity against human MCF-10A cells assessed as inhibition of cell growth incubated for 48 hrs by MTT assay; assay type: functional, cell-based
[5] = tested on: MCF-10A; experiment: Antiproliferative activity against human MCF-10A cells assessed as inhibition of cell growth at 50 uM incubated for 48 hrs by MTT assay relative to control; assay type: functional
[6] = tested on: MCF7; experiment: Antiproliferative activity against human MCF7 cells assessed as inhibition of cell growth incubated for 48 hrs by MTT assay; assay type: functional, cell-based; details: MCF7, 48 h
[7] = tested on: MCF7; experiment: Antiproliferative activity against human MCF7 cells assessed as inhibition of cell proliferation incubated for 48 hrs by MTT assay; assay type: functional, cell-based; details: MCF7, 48 h
[8] = tested on: MCF7; experiment: Antitumor activity against human MCF7 cells xenografted in BALB/c nude mouse assessed as tumor growth inhibition at 2 mg/kg, ip measured upto 14 days; assay type: functional; details: MCF7, 336 h, time <= 14 day, read-out: TGI
[9] = tested on: MCF7; experiment: Induction of apoptosis in human MCF7 cells assessed as upregulation of cleaved PARP level at 1 microg/ml uM incubated for 24 hrs by Western blot analysis; assay type: functional, cell-based; details: dose 1.0 µg/ml
[10] = tested on: MCF7; experiment: Inhibition of cell invasion in human MCF7 cells measured after 24 hrs by crystal violet staining based microscopic analysis; assay type: functional
[11] = tested on: MCF7; experiment: Downregulation of survivin level in human MCF7 cells at 1 microg/ml incubated for 24 hrs by Western blot analysis; assay type: functional, cell-based; details: dose 1.0 µg/ml
[12] = tested on: MCF7; experiment: Induction of apoptosis in human MCF7 cells assessed as upregulation of cleaved caspase 3 level at 1 microg/ml incubated for 24 hrs by Western blot analysis; assay type: functional, cell-based; details: dose 1.0 µg/ml
[13] = tested on: MCF7; experiment: Inhibition of cell migration in human MCF7 cells assessed as reduction in scratch measured after 24 hrs by microscopic analysis; assay type: functional

Row | Structure (SMILES) | IC50 [1] [µM] | IC50 [2] [µM] | IC50 [3] [µM] | IC50 [6] [µM] | other results
1 | COc1ccc2cc3[n+](cc2c1OC)CCNc1cc2c(cc1-3)OCO2 | 6.78 |  |  |  | 
2 | C1=CC2C=C3c4cc5c(cc4OCC[N+]3=CC2S1)OCO5 (centres undefined) | 9.31 |  |  |  | 
3 | COc1cc2cc3[n+](cc2cc1OC)CC(C)COc1cc2c(cc1-3)OCO2 (centres undefined) | 4.78 | 33.7 | 40.7 | 29.5 | IC50 [4]: > 50 µM; inhibition at 50 µM [5]: 77%
4 | COc1cccc2c1C(=O)c1c(O)c3c(c(O)c1C2=O)C[C@@](O)(C(=O)CO)C[C@@H]3O[C@H]1C[C@H](N)[C@H](O)[C@H](C)O1 [DOXORUBICIN] |  |  |  |  | IC50 [7]: 2.46 µM; inhibition in vivo at 2 mg/kg [8]: 64.3%; Activity [9]: inactive; inhibition [10]: Active; Activity [11]: Active; Activity [12]: inactive; inhibition (INH) [13]: 62.43%
5 | COc1ccc2cc3[n+](cc2c1OC)CCOc1cc2c(cc1-3)OCO2 | 8.01 |  |  |  | 
6 | CNC(=O)Nc1ccc2c(c1)CC[C@@]21OC(=O)N(CC(=O)N(Cc2ccc(F)cc2)[C@@H](C)C(F)(F)F)C1=O [A-485] |  | > 30 | 1.7 | > 30 | 
